Data on 19 substances can be found in patent US20110053836A1, “USE OF DEFENSINS AGAINST TUBERCULOSIS” (priority 2008, published 2011).

Common to all, as to format: cell-based, Mycobacterium tuberculosis
The test system of experiment [1] is M. tuberculosis H37Rv. As to conditions: for Fold of reduction: RLU relative to buffer control; for MIC: concentration that reduces RLU by 90% (1 log), 96 hours.
Experiment [2] has as its system H37Rv expressing LUX. The conditions noted are these: 6.25 micrograms/ml; ~0.1 OD600 and ~1.0 OD600; 96 hours.
In experiment [3] the test system is M. tuberculosis.
Experiment [4] relates to M. tuberculosis. The protocol:
The validation of the Relative Light Unit assay (RLU) was carried out by comparing it to conventional Colony Forming Unit (CFU) assay. In this assay, the cells were exposed to the different concentrations of the peptide for 96 hours and then plated onto 7H10 plates. The plates were incubated at 37° C. for 30 days and the colonies were enumerated.
This is another data set of the same source.

The mark [5] stands for this setting: peptide 25 micrograms/ml, buffer control 53503.
[6] abbreviates: peptide 6.25 micrograms/ml, buffer control 75380.

Read-outs that look alike come from different tables or passages of the source.

In experiment [1] (peptide 25 micrograms/ml), “SEQ ID NO: 3: plectasin variant, substitutions Q14K + K26R compared to SEQ ID NO: 2 (GFGCNGPWDEDDMKCHNHCKSIKGYRGGYCAKGGFVCKCY)” yielded a Fold of reduction of 23.2. The substance further returned an RLU in experiment [1] (setting [5]) of 2310.
In experiment [1] (peptide 25 micrograms/ml), “SEQ ID NO: 4: plectasin variant, substitution K26R compared to SEQ ID NO: 2 (GFGCNGPWDEDDMQCHNHCKSIKGYRGGYCAKGGFVCKCY)” came in with a Fold of reduction of 28.1. In addition, in experiment [1] (setting [5]), the RLU is 1903.
The corresponding values for “SEQ ID NO: 5: plectasin variant, substitution Q14F compared to SEQ ID NO: 2 (GFGCNGPWDEDDMFCHNHCKSIKGYKGGYCAKGGFVCKCY)” are 34.1 and 1567.
On to “SEQ ID NO: 6: plectasin variant, substitutions Q14R + K26R + K38R compared to SEQ ID NO: 2 (GFGCNGPWDEDDMRCHNHCKSIKGYRGGYCAKGGFVCRCY)”, for which the Fold of reduction in experiment [1] (peptide 25 micrograms/ml) worked out at 11.9. For the same substance, in experiment [1] (setting [5]), the RLU amounted to 4483.
In the case of “SEQ ID NO: 7: plectasin variant, substitutions Q14R + K20R compared to SEQ ID NO: 2 (GFGCNGPWDEDDMRCHNHCRSIKGYKGGYCAKGGFVCKCY)”, in experiment [1], the MIC worked out at 6.25 micrograms/ml. For the same substance, the Fold of reduction in experiment [1] (peptide 25 micrograms/ml) was 40.0. For the same substance, the RLU in experiment [1] (setting [5]) worked out at 1339.
Substance “SEQ ID NO: 8: plectasin variant, substitution Q14L compared to SEQ ID NO: 2 (GFGCNGPWDEDDMLCHNHCKSIKGYKGGYCAKGGFVCKCY)” displayed a Fold of reduction in experiment [1] (peptide 25 micrograms/ml) of 24.9. Besides, the RLU in experiment [1] (setting [5]) worked out at 2145.
In experiment [1], “SEQ ID NO: 9: plectasin variant, substitutions N5R + M13V compared to SEQ ID NO: 2 (GFGCRGPWDEDDVQCHNHCKSIKGYKGGYCAKGGFVCKCY)” gave an MIC of 6.25 micrograms/ml. The same substance gave a Fold of reduction in experiment [1] (peptide 25 micrograms/ml) of 31.8. Also, in experiment [1] (setting [5]), the RLU came out at 1685.
“SEQ ID NO: 10: plectasin variant, substitutions M13K + K38R compared to SEQ ID NO: 2 (GFGCNGPWDEDDKQCHNHCKSIKGYKGGYCAKGGFVCRCY)”: the Fold of reduction in experiment [1] (peptide 25 micrograms/ml) is recorded as 46.4. In addition, the RLU in experiment [1] (setting [5]) amounted to 1152.
The corresponding values for “SEQ ID NO: 11: plectasin variant, substitutions Q14R + K26R compared to SEQ ID NO: 2 (GFGCNGPWDEDDMRCHNHCKSIKGYRGGYCAKGGFVCKCY)” are 14.8 and 3604.
Taken in the same sequence, the figures for “SEQ ID NO: 12: plectasin variant, substitutions N5S + D9S + M13L + Q14R + N17V + A31S compared to SEQ ID NO: 2 (GFGCSGPWSEDDLRCHVHCKSIKGYKGGYCSKGGFVCKCY)” were 13.7 and 3901.
As for “SEQ ID NO: 13: plectasin variant, substitutions N5G + M13L compared to SEQ ID NO: 2 (GFGCGGPWDEDDLQCHNHCKSIKGYKGGYCAKGGFVCKCY)”, in experiment [1] (peptide 25 micrograms/ml), the Fold of reduction was determined as 20.8. Besides, the RLU in experiment [1] (setting [5]) was found to be 2576.
For the substance “SEQ ID NO: 14: plectasin variant, substitutions N5G + D9S + M13L + N17Q + A31T compared to SEQ ID NO: 2 (GFGCGGPWSEDDLQCHQHCKSIKGYKGGYCTKGGFVCKCY)”, the “Activity against early log and early stationary cells” value in experiment [2] was “potent activity against organisms in both early log and early stationary phases of growth”. Besides, the Fold of reduction in experiment [1] (peptide 25 micrograms/ml) amounted to 49.4. In addition, the RLU in experiment [1] (setting [5]) came out at 1083. For the same substance, the “Inhibition of growth by OD600” value in experiment [3] (6.25 micrograms/ml, T-25 flasks) is “completely inhibit the growth”. For the same substance, the “MIC (=MBC)” value in experiment [3] (confirmed by the assays of Examples 3 and 4 (CFU, OD600)) was determined as 6.25 micrograms/ml. Further, the “MBC obtained by CFU” value in experiment [4] (96 hours exposure, plated on 7H10, 30 days) was 6.25 micrograms/ml. Besides, the “Mode of action (bactericidal)” value in experiment [4] (MIC by RLU equivalent to MBC by CFU) is listed as “bactericidal”.
“SEQ ID NO: 15: plectasin variant, substitutions D9N + M13L + Q14R compared to SEQ ID NO: 2 (GFGCNGPWNEDDLRCHNHCKSIKGYKGGYCAKGGFVCKCY)” registered a Fold of reduction in experiment [1] (peptide 25 micrograms/ml) of 12.9. In experiment [1] (setting [5]), this substance registered an RLU of 4165.
Taken in the same sequence, the figures for “SEQ ID NO: 16: plectasin variant, substitutions D9G + Q14R + K23R compared to SEQ ID NO: 2 (GFGCNGPWGEDDMRCHNHCKSIRGYKGGYCAKGGFVCKCY)” were 11.9 and 4495.
“SEQ ID NO: 17: plectasin variant, substitutions D9S + M13L + Q14R + K26R compared to SEQ ID NO: 2 (GFGCNGPWSEDDLRCHNHCKSIKGYRGGYCAKGGFVCKCY)”: the MIC in experiment [1] was ~6.25 micrograms/ml. In experiment [1] (peptide 6.25 micrograms/ml), this substance returned a Fold of reduction of 9.1. The substance also gave an RLU in experiment [1] (setting [6]) of 8321.
Taken in the same sequence, the figures for “SEQ ID NO: 18: plectasin variant, substitutions D9S + Q14R + K26R compared to SEQ ID NO: 2 (GFGCNGPWSEDDMRCHNHCKSIKGYRGGYCAKGGFVCKCY)” were ~6.25 micrograms/ml, 9.8 and 7702.
Taken in the same sequence, the figures for “SEQ ID NO: 19: plectasin variant, substitutions D9S + Q14K + K26R compared to SEQ ID NO: 2 (GFGCNGPWSEDDMKCHNHCKSIKGYRGGYCAKGGFVCKCY)” were ~6.25 micrograms/ml, 9.9 and 7630.
Taken in the same sequence, the figures for “SEQ ID NO: 20: plectasin variant, substitutions D9S + M13L + Q14K + V36L compared to SEQ ID NO: 2 (GFGCNGPWSEDDLKCHNHCKSIKGYKGGYCAKGGFLCKCY)” were 6.25 micrograms/ml, 14.1 and 5355.
As to “plectasin [SEQ ID NO: 2, reference compound]”, the MIC entry in experiment [1] is on record as “around 25 micrograms/ml”. Moreover, the Fold of reduction in experiment [1] (peptide 25 micrograms/ml) stood at 25.7. The same substance registered an RLU in experiment [1] (setting [5]) of 2070.
